Reference: patent US20110212111A1, “MHC II Associated Protein and Uses Thereof” (priority 2008, published 2011)

Legend:
MPYS [1] = test: MPYS oxidation (disulfide bonded homodimer, non-reducing SDS-PAGE); format: cell-based; conditions: ER stress inducer; cells not given
From the text: (§1) It was also noticed that after the thiol reductase reaction, a large portion of MPYS occurs in a ˜80 kDa SDS resistant form consistent with the predicted size of a homodimer. The present inventors have shown that MPYS is dimeric in mouse B cells. To determine whether MPYS occurs as a non-disulfide-bonded dimer that becomes […] disulfide bonded upon oxidation, the chemical crosslinker Dithiobis[succinimidyl propionate] (DSP) was used to detect the endogenous MPYS complex in mouse splenocytes. In non-reducing SDS-PAGE, DSP treated MPYS ran as a single band of ˜80 kDa, the predicted size of a MPYS homodimer while non-DSP treated mock (or DTT treated) MPYS ran at the monomer size (˜40 kDa). It was also discovered that Flag-tagged MPYS associates with HA-MPYS when the two were co-expressed. Thus, the ˜80 kDa band seen on the non-reducing gels is a MPYS homodimer. Since this homodimer is sensitive to SDS, its dimerization is not mediated by intermolecular disulfide bonds.
(§2) The appearance of the SDS resistant MPYS homodimer after the thiol reductase reaction indicated the formation of intermolecular disulfide bonds in homodimeric MPYS is a consequence of oxidation. […] […] H2O2) and the thiol reductase reaction can lead to formation of intermolecular disulfide bonds in homodimeric MPYS.

MPYS [2] = target: T1, MPYS (Mus musculus, UniProt Q3TBT3); test: as above; format: cell-based; conditions: RAW264.7 cells
T1 construct: used to detect the endogenous MPYS complex in mouse splenocytes; endogenous in cells; host or cells: mouse splenocytes; K46 mouse B lymphoma cells; RAW264.7 mouse macrophage cells
T1 sequence (Q3TBT3 1-378): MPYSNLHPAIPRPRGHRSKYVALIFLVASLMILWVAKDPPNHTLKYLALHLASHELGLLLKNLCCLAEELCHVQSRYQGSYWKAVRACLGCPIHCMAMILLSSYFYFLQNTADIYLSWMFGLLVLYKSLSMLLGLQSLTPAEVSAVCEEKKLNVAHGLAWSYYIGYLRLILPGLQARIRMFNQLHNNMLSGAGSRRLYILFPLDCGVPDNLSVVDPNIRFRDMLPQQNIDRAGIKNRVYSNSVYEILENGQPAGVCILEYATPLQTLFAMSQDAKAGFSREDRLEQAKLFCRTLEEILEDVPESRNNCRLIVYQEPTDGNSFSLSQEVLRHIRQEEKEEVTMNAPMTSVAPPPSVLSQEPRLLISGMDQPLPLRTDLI
From the text: as §1, §2

K46 B lymphoma cells = test: MHC II mAb-induced cell death of K46 cells (Annexin V/PI, DiOC6/PI flow cytometry); format: cell-based, murine; conditions: for effect of inhibitor on MHC II mAb-induced death response: K46 cells pre-treated with inhibitor
Experimental: K46 cells were suspended in 5% complete IMDM media at a concentration of 10^6 cells/mL and then transferred to round bottomed 96-well plates (100 μL/well) and cultured at 37° C. for 1 h. Biotinylated MHC II mAbs were added into the wells and incubated for 12 min. Avidin was then added into the wells and cells were cultured for the indicated time. PI (2 μg/mL) and Annexin V-Alexa Fluor 488 (1 μL/100 μL cells) (A-13201, Molecular Probes), or DiOC6 (50 nM) and PI (2 μg/mL) was used to measure apoptotic or dead cells by flow cytometry.
(§3) ERK inhibitor PD98059 (Calbiochem, 513000), AKT inhibitor LY294002 (Calbiochem, 440202), and p38 inhibitor SB203580 (Calbiochem, 559389) were used in this study. The inhibitor was added to cells at 5×10^6 cells/mL and cultured for 4 hrs. Samples were then split into 1×10^6 cells/mL and cell death was induced and measured as above. To inhibit src kinase, PP2 (Calbiochem, 529573) was added into cells and cultured for 30 min before cell death was induced as above.

ERK = test: MHC II induced ERK activation (phospho-ERK blotting); format: cell-based, murine; conditions: K46 cells; PD98059 at 50 μM
Experimental: as §3
(§4) Cells were lysed in 0.33% CHAPS buffer (150 mM NaCl, 10 mM Tris pH 7.5, 10 mM sodium pyrophosphate, 2 mM Na3VO4, 10 mM NaF, 0.4 mM EDTA, 1 mM PMSF, and 1 μg/mL each of aprotinin, α1-antitrypsin, and leupeptin) (40×10^6/mL) at 4° C. for 1.5 h or overnight. Cell lysates were centrifuged at 12,000 g at 4° C. for 20 min. Supernatants were analyzed on a 10% SDS-PAGE gel. The gel was transferred to a PVDF membrane and proteins were probed with Abs and visualized using an ODYSSEY Infrared Imaging System (LI-COR). […]

[3] = test system: calcium mobilization in K46 cells; test: MHC II mAb-induced calcium mobilization (Indo-1AM); format: cell-based, murine
Experimental: Cells were loaded with Indo-1AM (Molecular Probes, Eugene, Oreg.) for 30 min at 37° C. as recommended by the manufacturer. Anti-MHC II mAb (10 μg/mL) was then added to the suspension for another 12 min at 37° C. before cells were washed and suspended in IMDM supplemented with 2% FCS. The cells (10^6 cells/mL) were analyzed before and after stimulation via cros slinking with avidin (20 μg/mL). Data were analyzed by Flow-Jo software (Tree Star, Inc., San Carlos, Calif.).

[4] = test system: tyrosine phosphorylation in K46 cells; test: MHC II mAb-induced tyrosine phosphorylation (immunoblotting); format: cell-based, murine
Experimental: as §3, §4

[5] = test system: RAW264.7 macrophage cells; test: Listeria monocytogenes induced IFNβ response in RAW264.7 cells (IFNβ-luc); format: cell-based, mouse
Experimental: RAW264.7, K46 B lymphoma cells and the 293GT cells were maintained in IMDM supplemented with 5% FBS. 293MT cells were maintained in DMEM (GIBCO, cat: 11965), 5% FBS (Biosource, 200p-500HI), sodium pyruvate (GIBCO 11360, 1 mM), HEPES buffer (GIBCO 15630-080, 10 mM) and 2-ME (50 μM) (Life Technologies, Gaithersburg Md.). The RAW264.7 cells stably expressing the IFNβ-Luciferase construct were generated by co-transfecting RAW264.7 cells with pGL3-IFNβ-Luciferase (Promega) and p-Puromycin plasmids (Clonetch). The stable cell line was established under puromycin selection (4 μg/ml).
RAW264.7 cells expressing the IFNβ-luc construct were infected with Listeria monocytogenes strain 10403S at multiplicity of five bacteria/cell. Cells were washed at 1 h after infection. Live bacterial were killed by addition of gentamicin. Whole cell lysates were prepared 5.5 h after infection. Luciferase activity was read with BD Monolight kit and Synergy reader.

TLR4-293T cells = test: Measurement of intracellular ROS (H2DCFDA flow cytometry); format: cell-based, human
Experimental: Cells were washed and suspended in PBS, and then culture with H2DCFDA (5 μM) (Invitrogen, D399) for 20 min at 37° C. They were then washed in PBS and the fluorescence was measured by flow cytometry.

IFNβ promoter = test: MPYS induced IFNβ reporter activation in TLR4-293 cells; format: cell-based, human; conditions: TLR4-293T / TLR4-293GT cells
Experimental: (§5) 293 GT cells and their derivatives (˜1×10^5) were seeded in 24-well dishes and transfected the following day using Effectene transfection reagent kit (Qiagen, cat #301427). Reporter assays were performed as previous described. Id.
(§6) Cells were seeded in 24-well dishes (˜1×10^5/ml) and transfected the following day using Effectene transfection reagent kit (Qiagen, 301427). Reporter assays were performed as previous described by Bin et al., in J Biol. Chem., 2003, 278, 24526-24532. All experiments were repeated at least three times and results are representative.

NFκB = test: MPYS induced NFκB reporter activation in TLR4-293 cells; format: cell-based, human; conditions: TLR4-293T / TLR4-293GT cells
Experimental: as §5, §6

Q: C[C@H]1CCC/C=C/[C@@H]2C[C@H](O)C[C@H]2[C@H](O)/C=C/C(=O)O1 [Brefeldin A] was tested. Which “formation of oxidized MPYS” value (MPYS [1]) did it give?
A: The value was “generated oxidized MPYS”.

Q: OO [H2O2] was tested. Which “formation of oxidized MPYS” value (MPYS [2]) did it give?
A: Its value is “led to the formation of oxidized MPYS”.

Q: With O=c1cc(N2CCOCC2)oc2c(-c3ccccc3)cccc12 [LY294002] as the molecule, how does the “effect of inhibitor on MHC II mAb-induced death response” value (“effect of inhibitor” below) (K46 B lymphoma cells) read?
A: Its value is “no significant effect”.

Q: Which results are given for COc1cccc(-c2cc(=O)c3ccccc3o2)c1N [PD98059]?
A: effect on MHC II induced ERK activation (ERK): did not completely inhibit; inhibition of MHC II mediated cell death (K46 B lymphoma cells; inhibitor at 50 μM, K46 cells): about 50%

Q: CC(C)(C)n1nc(-c2ccc(Cl)cc2)c2c(N)ncnc21 [PP2] was tested. Which “effect on MHC II mAb-induced calcium responses” value [3] did it give?
A: The value was “blocked”.

Q: And the “effect on MHC II induced ERK activation” value (ERK)?
A: The value was “neither MHC class II-mediated activation of ERK nor apoptosis was inhibited”.

Q: And the “effect on MHC II mAb-induced tyrosine phosphorylation” value ([4]; K46 cells)?
A: Its value is “blocked”.

Q: And the “effect on MPYS tyrosine phosphorylation and recruitment of SHP-1 and SHIP-1” value ([4]; after MHC class II aggregation)?
A: The value was “blocked”.

Q: And the “effect of inhibitor” value (K46 B lymphoma cells)?
A: The value was “remained largely intact”.

Q: C[S+]([O-])c1ccc(-c2nc(-c3ccncc3)c(-c3ccc(F)cc3)[nH]2)cc1 (centres unmarked) [SB203580] was tested. Which “effect of inhibitor” value (K46 B lymphoma cells) did it give?
A: The value was “no significant effect”.

Q: For C=C(C)[C@H]1Cc2c(ccc3c2O[C@@H]2COc4cc(OC)c(OC)cc4[C@@H]2C3=O)O1 [rotenone], which “effect on Listeria monocytogenes induction of IFNβ production” value [5] is on record?
A: The value was “significantly inhibited”.

Q: And the “cellular ROS level” value (TLR4-293T cells)?
A: Its value is “increased cellular ROS level”.

Q: What about the “effect on MPYS induced IFNβ reporter activation” value (IFNβ promoter) of the same molecule?
A: Its value is “completely inhibited”.

Q: And the “formation of oxidized MPYS” value (MPYS [2])?
A: The value was “led to the formation of oxidized MPYS”.

Q: And the “effect on MPYS induced NFκB reporter activation” value (NFκB)?
A: The value was “completely inhibited”.

Q: How did the “formation of oxidized MPYS” value (MPYS [2]) turn out when Poly(I:C) was run?
A: The value was “did not generate oxidized MPYS”.
